We go through 1 molecule from article PMC3412150 (Circulation research, 2012).

The experiment deals with Nav1.8 (SCN10A) (Homo sapiens, UniProt Q9Y5Y9). Description: whole-cell voltage clamp, transfected ND7/[…] cells. The class given is cell-based.
Chain of Nav1.8 (SCN10A) (Q9Y5Y9 whole entry): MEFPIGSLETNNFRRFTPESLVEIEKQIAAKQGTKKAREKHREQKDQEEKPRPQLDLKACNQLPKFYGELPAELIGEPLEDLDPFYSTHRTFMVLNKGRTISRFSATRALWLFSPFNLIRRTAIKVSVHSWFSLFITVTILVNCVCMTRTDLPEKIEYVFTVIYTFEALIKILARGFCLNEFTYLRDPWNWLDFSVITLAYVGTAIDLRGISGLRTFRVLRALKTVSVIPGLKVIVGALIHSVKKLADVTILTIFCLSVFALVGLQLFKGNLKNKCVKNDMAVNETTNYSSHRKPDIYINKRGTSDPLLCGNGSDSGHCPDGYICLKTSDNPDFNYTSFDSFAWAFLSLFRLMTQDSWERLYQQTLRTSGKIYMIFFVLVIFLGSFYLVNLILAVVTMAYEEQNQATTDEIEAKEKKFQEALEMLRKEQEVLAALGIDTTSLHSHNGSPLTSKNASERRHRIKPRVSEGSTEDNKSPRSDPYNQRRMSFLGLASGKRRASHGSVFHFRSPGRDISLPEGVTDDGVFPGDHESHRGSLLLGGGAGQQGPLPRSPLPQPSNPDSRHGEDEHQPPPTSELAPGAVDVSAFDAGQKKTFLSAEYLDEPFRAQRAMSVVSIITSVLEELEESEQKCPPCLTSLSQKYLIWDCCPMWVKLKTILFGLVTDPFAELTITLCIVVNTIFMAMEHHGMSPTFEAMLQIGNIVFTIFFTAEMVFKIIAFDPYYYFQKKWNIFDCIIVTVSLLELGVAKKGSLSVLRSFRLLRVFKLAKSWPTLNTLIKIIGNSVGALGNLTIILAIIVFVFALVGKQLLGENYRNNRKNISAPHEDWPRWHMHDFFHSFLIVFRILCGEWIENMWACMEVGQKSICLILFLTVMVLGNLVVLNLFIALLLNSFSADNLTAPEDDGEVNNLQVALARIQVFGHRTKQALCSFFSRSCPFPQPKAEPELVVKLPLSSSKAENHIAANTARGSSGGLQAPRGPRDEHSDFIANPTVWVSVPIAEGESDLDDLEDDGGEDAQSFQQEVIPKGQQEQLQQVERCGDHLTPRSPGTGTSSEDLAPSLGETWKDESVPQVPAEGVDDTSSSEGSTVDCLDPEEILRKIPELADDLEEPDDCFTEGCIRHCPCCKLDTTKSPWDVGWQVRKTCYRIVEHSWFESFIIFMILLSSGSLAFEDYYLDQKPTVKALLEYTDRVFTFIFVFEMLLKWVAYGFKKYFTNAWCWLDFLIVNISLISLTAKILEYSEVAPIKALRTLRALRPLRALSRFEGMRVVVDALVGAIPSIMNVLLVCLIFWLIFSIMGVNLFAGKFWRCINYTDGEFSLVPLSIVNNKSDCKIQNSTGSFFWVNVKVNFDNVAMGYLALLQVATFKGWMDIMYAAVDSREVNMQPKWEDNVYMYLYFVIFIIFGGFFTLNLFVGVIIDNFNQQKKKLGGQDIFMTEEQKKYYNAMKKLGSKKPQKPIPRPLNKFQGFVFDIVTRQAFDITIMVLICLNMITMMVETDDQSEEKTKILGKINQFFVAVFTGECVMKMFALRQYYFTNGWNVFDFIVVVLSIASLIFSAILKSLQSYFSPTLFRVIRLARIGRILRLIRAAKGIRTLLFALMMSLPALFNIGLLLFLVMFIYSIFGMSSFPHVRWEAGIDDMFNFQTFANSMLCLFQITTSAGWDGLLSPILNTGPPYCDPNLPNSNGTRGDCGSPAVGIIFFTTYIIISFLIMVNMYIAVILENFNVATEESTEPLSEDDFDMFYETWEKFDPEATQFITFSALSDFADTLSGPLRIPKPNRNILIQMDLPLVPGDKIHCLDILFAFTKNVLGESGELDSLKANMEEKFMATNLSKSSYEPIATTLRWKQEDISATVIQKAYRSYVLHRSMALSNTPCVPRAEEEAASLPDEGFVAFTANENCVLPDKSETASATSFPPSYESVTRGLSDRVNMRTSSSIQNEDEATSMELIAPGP

In the case of `COc1cc(NC(=O)c2ccc(-c3ccc(Cl)cc3)o2)cc(OC)c1` [A-803467], the IC50 (as a rule, the concentration needed to halve the response being measured) was about 10 nM.
